Biological target: LRRK2 G2019S (Homo sapiens, UniProt Q5S007, G2019S)
Test: LRRK2 G2019S Km ATP LanthaScreen assay
Assay type: biochemical
Details: read-out: LRRK2 pIC50 (converted)

Chain of LRRK2 G2019S (Q5S007 whole entry G2019S): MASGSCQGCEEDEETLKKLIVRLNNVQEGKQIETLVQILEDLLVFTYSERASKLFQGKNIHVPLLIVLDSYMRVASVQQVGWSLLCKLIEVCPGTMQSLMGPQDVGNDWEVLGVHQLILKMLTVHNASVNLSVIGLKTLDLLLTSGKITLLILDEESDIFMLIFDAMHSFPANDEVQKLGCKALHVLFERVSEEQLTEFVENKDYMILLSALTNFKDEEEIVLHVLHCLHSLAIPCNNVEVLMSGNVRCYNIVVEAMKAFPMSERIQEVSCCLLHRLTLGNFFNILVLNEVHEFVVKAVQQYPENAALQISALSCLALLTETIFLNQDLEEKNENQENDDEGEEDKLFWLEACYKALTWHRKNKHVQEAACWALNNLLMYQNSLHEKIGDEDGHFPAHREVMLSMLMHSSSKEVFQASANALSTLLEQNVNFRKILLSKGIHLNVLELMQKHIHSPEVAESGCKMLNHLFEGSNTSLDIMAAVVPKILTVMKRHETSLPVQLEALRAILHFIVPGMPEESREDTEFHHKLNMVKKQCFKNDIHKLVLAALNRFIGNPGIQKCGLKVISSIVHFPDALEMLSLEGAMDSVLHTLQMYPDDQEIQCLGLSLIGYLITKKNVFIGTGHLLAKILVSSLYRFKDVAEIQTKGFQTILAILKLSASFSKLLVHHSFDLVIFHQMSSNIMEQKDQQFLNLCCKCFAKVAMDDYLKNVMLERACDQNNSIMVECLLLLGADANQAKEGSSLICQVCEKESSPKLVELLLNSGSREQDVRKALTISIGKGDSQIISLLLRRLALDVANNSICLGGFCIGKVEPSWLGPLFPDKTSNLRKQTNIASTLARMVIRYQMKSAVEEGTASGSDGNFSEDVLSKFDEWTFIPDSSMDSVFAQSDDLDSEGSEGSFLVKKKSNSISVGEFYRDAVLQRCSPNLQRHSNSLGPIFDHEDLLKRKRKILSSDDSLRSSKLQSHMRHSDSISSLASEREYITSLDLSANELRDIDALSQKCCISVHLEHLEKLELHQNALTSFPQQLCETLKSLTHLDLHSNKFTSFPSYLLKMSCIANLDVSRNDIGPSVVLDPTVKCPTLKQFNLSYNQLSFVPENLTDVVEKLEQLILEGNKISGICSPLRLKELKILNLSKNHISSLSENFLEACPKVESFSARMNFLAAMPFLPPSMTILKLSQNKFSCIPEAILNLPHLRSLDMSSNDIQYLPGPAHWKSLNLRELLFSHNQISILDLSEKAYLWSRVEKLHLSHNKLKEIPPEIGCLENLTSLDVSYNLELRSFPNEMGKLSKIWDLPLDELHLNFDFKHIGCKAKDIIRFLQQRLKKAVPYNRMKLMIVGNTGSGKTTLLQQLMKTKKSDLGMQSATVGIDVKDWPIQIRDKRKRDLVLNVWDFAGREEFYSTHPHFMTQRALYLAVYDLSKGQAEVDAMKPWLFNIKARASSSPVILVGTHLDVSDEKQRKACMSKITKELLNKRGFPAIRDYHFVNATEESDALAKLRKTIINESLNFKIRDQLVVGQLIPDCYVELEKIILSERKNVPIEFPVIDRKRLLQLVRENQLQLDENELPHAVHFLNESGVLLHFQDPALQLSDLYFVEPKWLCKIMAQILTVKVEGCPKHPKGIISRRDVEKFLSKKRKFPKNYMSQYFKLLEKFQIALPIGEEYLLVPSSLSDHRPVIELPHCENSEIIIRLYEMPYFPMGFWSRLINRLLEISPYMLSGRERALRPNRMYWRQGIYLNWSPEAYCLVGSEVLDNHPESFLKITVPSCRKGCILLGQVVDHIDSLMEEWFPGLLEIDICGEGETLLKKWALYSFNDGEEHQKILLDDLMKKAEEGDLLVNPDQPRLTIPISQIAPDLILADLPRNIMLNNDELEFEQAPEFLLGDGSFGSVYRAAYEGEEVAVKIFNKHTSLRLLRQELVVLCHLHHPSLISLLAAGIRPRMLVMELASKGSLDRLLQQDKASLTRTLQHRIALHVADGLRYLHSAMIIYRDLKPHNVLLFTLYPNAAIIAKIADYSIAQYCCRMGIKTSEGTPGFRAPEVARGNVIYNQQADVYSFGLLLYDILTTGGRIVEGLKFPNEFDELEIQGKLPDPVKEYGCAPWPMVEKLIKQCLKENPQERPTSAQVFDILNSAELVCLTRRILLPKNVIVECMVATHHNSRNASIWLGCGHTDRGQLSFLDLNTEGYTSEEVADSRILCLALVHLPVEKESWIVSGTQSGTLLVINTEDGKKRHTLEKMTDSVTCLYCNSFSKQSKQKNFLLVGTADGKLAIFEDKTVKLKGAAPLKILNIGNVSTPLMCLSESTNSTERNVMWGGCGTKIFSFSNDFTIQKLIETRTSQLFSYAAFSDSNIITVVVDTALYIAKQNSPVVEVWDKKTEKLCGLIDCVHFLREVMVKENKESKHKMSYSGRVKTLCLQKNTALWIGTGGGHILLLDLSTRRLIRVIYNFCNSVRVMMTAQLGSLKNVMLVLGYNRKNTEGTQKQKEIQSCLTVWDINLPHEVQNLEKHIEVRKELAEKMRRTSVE

| SMILES | IC50 [nM] |
| --- | --- |
| CC1(N2CCC(c3cc4cc(NC(=O)C5CC5C(F)F)ncc4cc3Cl)CC2)COCC1O (single isomer, unassigned) [Ex-4.43, N-(7-chloro-6-(1-(4-hydroxy-3-methyltetrahydrofuran-3-yl)piperidin-4-yl)isoquinolin-3-yl)-2-(difluoromethyl)cyclopropane-1-carboxamide] | 1.48 |
| CC1(N2CCC(c3cc4cc(NC(=O)C5CC56CC6)ncc4cc3Cl)CC2)COCC1F (stereo not shown) [Ex-2.96] | 0.0813 |
| CC(C)(O)C1CC1C(=O)Nc1cc2cc(C3CCN(C4(C)COCC4O)CC3)c(Cl)cc2cn1 (single isomer, unassigned) [Ex-4.9, Trans-N-(7-chloro-6-(1-(4-hydroxy-3-methyltetrahydrofuran-3-yl)piperidin-4-yl)isoquinolin-3-yl)-2-(2-hydroxypropan-2-yl)cyclopropane-1-carboxamide] | 0.151 |
| O=C(Nc1cc2cc(C3CCN(C4COC4)CC3)c(Cl)cc2cn1)C1CC12CCOCC2 (racemic) [Ex-1.9, Rac-N-(7-chloro-6-(1-(oxetan-3-yl)piperidin-4-yl)isoquinolin-3-yl)-6-oxaspiro[2.5]octane-1-carboxamide] | 2.88 |
| CC1(N2CCC(c3cc4cc(NC(=O)C5C6CCCOC65)ncc4cc3Cl)CC2)COCC1O (single isomer, unassigned) [Ex-4.13, N-(7-chloro-6-(1-(4-hydroxy-3-methyltetrahydrofuran-3-yl)piperidin-4-yl)isoquinolin-3-yl)-2-oxabicyclo[4.1.0]heptane-7-carboxamide] | 0.182 |
| CC(C)(O)C1CC1C(=O)Nc1cc2cc(C3CCN(C4(C)COCC4O)CC3)c(Cl)cc2cn1 (single isomer, unassigned) [Ex-4.10, Trans-N-(7-chloro-6-(1-(4-hydroxy-3-methyltetrahydrofuran-3-yl)piperidin-4-yl)isoquinolin-3-yl)-2-(2-hydroxypropan-2-yl)cyclopropane-1-carboxamide] | 0.0813 |
| CC1(N2CCC(c3cc4cc(NC(=O)C5CC5C5CCOCC5)ncc4cc3Cl)CC2)COCC1F (stereo not shown) [Ex-2.92] | 0.0813 |
| Cn1cc(CC(=O)Nc2cc3cc(C4CCN(C5(C)COCC5O)CC4)c(Cl)cc3cn2)c(Cl)n1 (stereo not shown) [Ex-3.12] | 0.251 |
| CC1(N2CCC(c3cc4cc(NC(=O)C5CC5C(F)F)ncc4cc3Cl)CC2)COCC1O (single isomer, unassigned) [Ex-10.10, N-(7-chloro-6-(1-(4-hydroxy-3-methyltetrahydrofuran-3-yl)piperidin-4-yl)isoquinolin-3-yl)-2-(difluoromethyl)cyclopropane-1-carboxamide] | 15.5 |
| Cc1cc2cnc(NC(=O)C3C4CCOCC43)cc2cc1C1CCN(C2(C)COCC2O)CC1 (stereo not shown) [Ex-2.51] | 0.759 |
| CC1(C)CC(C(=O)Nc2cc3cc(C4CCC(N5CCC(F)C5)CC4)c(Cl)cc3cn2)CCO1 (single isomer, unassigned) [Ex-5.10, N-(7-chloro-6-(4-(3-fluoropyrrolidin-1-yl)cyclohexyl)isoquinolin-3-yl)-2,2-dimethyltetrahydro-2H-pyran-4-carboxamid] | 3.02 |
| CCOC1CC2(C1)CC2C(=O)Nc1cc2cc(C3CCN(C4(C)COCC4F)CC3)c(C)cc2cn1 (single isomer, unassigned) [Ex-16.5, 5-ethoxy-N-(6-(1-(4-fluoro-3-methyltetrahydrofuran-3-yl)piperidin-4-yl)-7-methylisoquinolin-3-yl)spiro[2.3]hexane-1-carboxamide] | 0.0813 |
| Cc1cc2cnc(NC(=O)C3CC34CCOC4)cc2cc1C1CCN(C2(C)COCC2F)CC1 (single isomer, unassigned) [Ex-15.13, N-(6-(1-(4-fluoro-3-methyltetrahydrofuran-3-yl)piperidin-4-yl)-7-methylisoquinolin-3-yl)-5-oxaspiro[2.4]heptane-1-carboxamide] | 2.69 |
| O=C(Nc1cc2cc(C3CCN(C4COC4)CC3)c(Cl)cc2cn1)C1CC12CCC(F)(F)CC2 (single isomer, unassigned) [Ex-1.8, (R or S)-N-(7-chloro-6-(1-(oxetan-3-yl)piperidin-4-yl)isoquinolin-3-yl)-6,6-difluorospiro[2.5]octane-1-carboxamide] | 21.4 |
| Cc1cc2cnc(NC(=O)C3CC3C(F)F)cc2cc1C1CCN(C2(C)COCC2O)CC1 (stereo not shown) [Ex-2.55] | 3.98 |
| CC1(N2CCC(c3cc4cc(NC(=O)C5CC56CCOCC6)ncc4cc3Cl)C(F)C2)COCC1O (single isomer, unassigned) [Ex-14.6, N-(7-chloro-6-(3-fluoro-1-(4-hydroxy-3-methyltetrahydrofuran-3-yl)piperidin-4-yl)isoquinolin-3-yl)-6-oxaspiro[2.5]octane-1-carboxamide] | 2.57 |
| CC1(N2CCC(c3cc4cc(NC(=O)C5C6CCOCC65)ncc4cc3Cl)CC2)COCC1F (single isomer, unassigned) [Ex-6.41, N-(7-chloro-6-(1-(4-fluoro-3-methyltetrahydrofuran-3-yl)piperidin-4-yl)isoquinolin-3-yl)-3-oxabicyclo[4.1.0]heptane-7-carboxamide] | 0.0813 |
| Cn1cc(C(=O)Nc2cc3cc(C4CCN([C@]5(C)COC[C@@H]5O)CC4)c(Cl)cc3cn2)cn1 (single isomer, unassigned) [Ex-12.9, N-(7-chloro-6-(1-(4-hydroxy-3-methyltetrahydrofuran-3-yl)piperidin-4-yl)isoquinolin-3-yl)-1-methyl-1H-pyrazole-4-carboxamide] | 141 |
| Cc1cc2cnc(NC(=O)C3CC34CCOC4)cc2cc1C1CCN(C2(C)COCC2F)CC1 (single isomer, unassigned) [Ex-15.7, N-(6-(1-(4-fluoro-3-methyltetrahydrofuran-3-yl)piperidin-4-yl)-7-methylisoquinolin-3-yl)-5-oxaspiro[2.4]heptane-1-carboxamide] | 1.23 |
| CC1OCCC1N1CCC(c2cc3cc(NC(=O)C4CC4)ncc3cc2Cl)CC1 (single isomer, unassigned) [Ex-9.10, N-(7-chloro-6-(1-(2-methyltetrahydrofuran-3-yl)piperidin-4-yl)isoquinolin-3-yl)cyclopropanecarboxamide] | 38.9 |
| COC1COCC1N1CCC(c2cc3cc(NC(=O)C4CC45CCOCC5)ncc3cc2Cl)CC1 (single isomer, unassigned) [Ex-6.52, N-(7-chloro-6-(1-(4-methoxytetrahydrofuran-3-yl)piperidin-4-yl)isoquinolin-3-yl)-6-oxaspiro[2.5]octane-1-carboxamide] | 0.2 |
| CC1(C)CCC(C(=O)Nc2cc3cc(C4CCC(N5CCC(F)C5)CC4)c(Cl)cc3cn2)CO1 (single isomer, unassigned) [Ex-5.22, N-(7-chloro-6-(4-(3-fluoropyrrolidin-1-yl)cyclohexyl)isoquinolin-3-yl)-6,6-dimethyltetrahydro-2H-pyran-3-carboxamide] | 6.17 |
| CCOC1CC2(C1)CC2C(=O)Nc1cc2cc(C3CCN(C4(C)COCC4O)CC3)c(Cl)cc2cn1 (single isomer, unassigned) [Ex-4.31, N-(7-chloro-6-(1-(4-hydroxy-3-methyltetrahydrofuran-3-yl)piperidin-4-yl)isoquinolin-3-yl)-5-ethoxyspiro[2.3]hexane-1-carboxamide] | 5.62 |
| CC1(N2CCC(c3cc4cc(NC(=O)C5CC56CCC(F)(F)CC6)ncc4cc3Cl)CC2)COCC1O (stereo not shown) [Ex-2.16] | 0.407 |

Next, values leading:

| IC50 [nM] | SMILES |
| --- | --- |
| 24 | CC(C)OC1CCC(C(=O)Nc2cc3cc(C4(C#N)CC45CC5)ccc3cn2)OC1 (single isomer, unassigned) [Ex-1.28, N-(6-((R or S)-1-cyanospiro[2.2]pentan-1-yl)isoquinolin-3-yl)-5R or 5S-isopropoxytetrahydro-2H-pyran-2R-carboxamide] |
| 9.55 | N#CC1(c2ccc3cnc(NC(=O)C4CC45CCOCC5)cc3c2)CC12CC2 (single isomer, unassigned) [Ex-18.11, (R or S)-N-(6-((R or S)-1-cyanospiro[2.2]pentan-1-yl)isoquinolin-3-yl)-6-oxaspiro[2.5]octane-1-carboxamide] |
| 0.631 | CC1CC1C(=O)Nc1cc2cc(C3CCN(C4COC4)CC3)c(Cl)cc2cn1 (single isomer, unassigned) [Ex-9.3, N-(7-chloro-6-(1-(oxetan-3-yl)piperidin-4-yl)isoquinolin-3-yl)-2-methylcyclopropane-1-carboxamide] |
| 0.851 | N#CC1(c2ccc3cnc(NC(=O)C4CC4c4cccnc4)cc3c2)CC12CC2 (stereo not shown) [Ex-2.46] |
| 0.398 | N#CC1(c2ccc3cnc(NC(=O)C4CC45CC5)cc3c2)CC12CC2 (single isomer, unassigned) [Ex-2.2] |
| 0.871 | N#CC1(c2ccc3cnc(NC(=O)C4CC45CC5)cc3c2)CC12CC2 (single isomer, unassigned) [Ex-2.1] |
| 0.661 | COC1CC(C(=O)Nc2cc3cc(C4(C#N)CC45CC5)ccc3cn2)C1 (single isomer, unassigned) [Ex-1.2, (1R,3R or 1S,3S)-N-(6-((R or S)-1-cyanospiro[2.2]pentan-1-yl)isoquinolin-3-yl)-3-methoxycyclobutane-1-carboxamide] |
| 5.62 | CC1(N2CCC(c3cc4cc(NC(=O)C5CC5c5ccccn5)ncc4cc3Cl)CC2)CCOC1 (single isomer, unassigned) [Ex-6.32, N-(7-chloro-6-(1-(3-methyltetrahydrofuran-3-yl)piperidin-4-yl)isoquinolin-3-yl)-2-(pyridin-2-yl)cyclopropane-1-carboxamide] |
| 3.31 | Cn1ccc(C2CC2C(=O)Nc2cc3cc(C4(C#N)CC45CC5)ccc3cn2)n1 (stereo not shown) [Ex-2.72] |
| 1.17 | CCC1C(C(=O)Nc2cc3cc(C(C)COC)c(Cl)cc3cn2)C1c1cnn(C)c1 (single isomer, unassigned) [Ex-9.14, N-(7-chloro-6-(1-methoxypropan-2-yl)isoquinolin-3-yl)-2-ethyl-3-(1-methyl-1H-pyrazol-4-yl)cyclopropane-1-carboxamide] |
| 0.49 | Cc1cc2cnc(NC(=O)C3CC3C(F)F)cc2cc1C1CCN(C2(C)COCC2O)CC1 (stereo not shown) [Ex-2.54] |
| 9.12 | N#CC1(c2ccc3cnc(NC(=O)C4CC(OC(F)F)C4)cc3c2)CC12CC2 (single isomer, unassigned) [Ex-2.6] |
| 29.5 | COCC(C)c1cc2cc(NC(=O)C3CC3c3ccccn3)ncc2cc1Cl (single isomer, unassigned) [Ex-9.20, N-(7-chloro-6-(1-methoxypropan-2-yl)isoquinolin-3-yl)-2-(pyridin-2-yl)cyclopropane-1-carboxamide] |

From US20240398784A1, “C-LINKED ISOQUINOLINE AMIDES AS LRRK2 INHIBITORS, PHARMACEUTICAL COMPOSITIONS, AND USES THEREOF” (Merck Sharp & Dohme LLC, priority 2021, published 2024)
